Tests used:
Format in all cases: tissue-based
[1] = biological target: Histamine H1 receptor (Cavia porcellus) (UniProt P31389); test: In vitro inhibitory activity against histamine H1 receptor in guinea-pig ileum at 0.1 uM
[2] = biological target: T1, B2 bradykinin receptor (Rattus norvegicus) (UniProt P25023); test: In vitro inhibitory activity against Bradykinin receptor B2 in isolated rat ileum at 0.1 uM
T1 sequence (whole entry): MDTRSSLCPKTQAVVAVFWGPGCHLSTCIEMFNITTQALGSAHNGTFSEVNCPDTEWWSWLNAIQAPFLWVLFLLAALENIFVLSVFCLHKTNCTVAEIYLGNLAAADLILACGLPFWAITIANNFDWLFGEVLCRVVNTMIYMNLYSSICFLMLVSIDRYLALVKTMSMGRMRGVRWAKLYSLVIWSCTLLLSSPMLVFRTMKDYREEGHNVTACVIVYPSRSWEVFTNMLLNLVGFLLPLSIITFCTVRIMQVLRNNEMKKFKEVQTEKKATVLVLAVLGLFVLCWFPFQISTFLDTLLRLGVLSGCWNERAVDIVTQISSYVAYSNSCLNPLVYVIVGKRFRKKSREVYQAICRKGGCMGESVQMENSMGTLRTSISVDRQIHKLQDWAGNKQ

[3] = biological target: T1, B2 bradykinin receptor (Rattus norvegicus); test: In vitro inhibitory activity against Bradykinin receptor B2 in isolated rat ileum at 0.1uM; '-' indicates activation

Histamine H1 receptor (Cavia porcellus), sequence (P31389 whole entry): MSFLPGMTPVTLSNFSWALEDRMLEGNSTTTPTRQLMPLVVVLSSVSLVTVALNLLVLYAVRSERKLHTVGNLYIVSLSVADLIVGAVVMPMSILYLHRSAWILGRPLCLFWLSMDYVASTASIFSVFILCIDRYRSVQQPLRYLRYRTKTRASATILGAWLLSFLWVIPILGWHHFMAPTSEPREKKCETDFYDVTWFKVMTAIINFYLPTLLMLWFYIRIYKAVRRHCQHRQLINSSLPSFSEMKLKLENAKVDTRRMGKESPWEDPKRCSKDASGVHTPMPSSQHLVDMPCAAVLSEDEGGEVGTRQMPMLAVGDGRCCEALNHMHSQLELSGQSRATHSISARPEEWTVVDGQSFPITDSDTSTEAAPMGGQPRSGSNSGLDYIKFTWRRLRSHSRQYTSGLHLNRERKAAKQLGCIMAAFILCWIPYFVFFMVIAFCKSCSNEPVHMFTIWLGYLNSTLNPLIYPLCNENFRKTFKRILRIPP

inhibition [1] [%]	inhibition [2] [%]	inhibition [3] [%]	Compound
77.5	5		CC(C)c1ccc(COCCN2CCN(C(c3ccccc3)c3ccc(Cl)cc3)CC2)cc1 (centres undefined)
10		-9.5	Clc1ccc(C(c2ccccc2)N2CCN(CCOCc3ccc4ccccc4c3)CC2)cc1 (centres undefined)
33		-10	COc1cccc(COCCN2CCN(C(c3ccccc3)c3ccc(Cl)cc3)CC2)c1 (centres undefined)
78.5	8.7		COc1ccc(COCCN2CCN(C(c3ccccc3)c3ccc(Cl)cc3)CC2)cc1 (centres undefined)
28.4	36.6		O=C(O)Cc1ccc(COCCN2CCN(C(c3ccccc3)c3ccc(Cl)cc3)CC2)cc1 (centres undefined)

Continued, molecule first:

Compound	inhibition [1] [%]	inhibition [2] [%]	inhibition [3] [%]
CC(CN1CCN(C(c2ccccc2)c2ccc(Cl)cc2)CC1)(OCC(=O)O)c1ccccc1 (centres undefined)	12.5	45.6	
Clc1ccc(C(c2ccccc2)N2CCN(CCCOCc3ccc4ccccc4c3)CC2)cc1 (centres undefined)	26.4	17.7	
CC(COCC(=O)O)CN1CCN(C(c2ccccc2)c2ccc(Cl)cc2)CC1 (centres undefined)	14.3	25	
Clc1ccc(C(c2ccccc2)N2CCN(CCOCc3cccc4ccccc34)CC2)cc1 (centres undefined)	20	17	
CC(C)(COCC(=O)O)CN1CCN(C(c2ccccc2)c2ccc(Cl)cc2)CC1 (centres undefined)	42.9	33.4	
O=C(O)C(OCCN1CCN(C(c2ccccc2)c2ccc(Cl)cc2)CC1)c1ccccc1 (centres undefined)	43.7	9.1	
O=C(O)COC(CCc1ccccc1)CN1CCN(C(c2ccccc2)c2ccc(Cl)cc2)CC1 (centres undefined)	11		-3.7
Clc1ccc(C(c2ccccc2)N2CCN(CCCOCc3cccc4ccccc34)CC2)cc1 (centres undefined)	63	11.9	
O=C(O)COCCN1CCN(C(c2ccccc2)c2ccc(Cl)cc2)CC1 (centres undefined)	50.7	27	
CCC(OCCN1CCN(C(c2ccccc2)c2ccc(Cl)cc2)CC1)C(=O)O (centres undefined)	10.2	12.6	
O=C(O)COC(CN1CCN(C(c2ccccc2)c2ccc(Cl)cc2)CC1)c1cccc2ccccc12 (centres undefined)	57	26.6	
O=C(O)COC(CCN1CCN(C(c2ccccc2)c2ccc(Cl)cc2)CC1)c1ccccc1 (centres undefined)	52.7	25.4	

Source: ChEMBL document CHEMBL1131983, “Synthesis of piperazine derivatives and evaluation of their antihistamine and antibradykinin effects” (Bioorg Med Chem Lett, 1999)
